# Results reported in article PMC3509384 (Anesthesiology, 2012).
# Where two headings read alike, the source gives them in different places.
# Experiments:
# [1] = In vitro metabolic half-life in pooled rat blood; type: in vitro ADME, Sprague-Dawley rats; conditions: for Blood Half-Life (95% CI): pooled rat blood, 37°C, 200 µM
# [2] = Octanol:water partition coefficient; type: physicochemical; conditions: water buffered with 10 mM Tris (pH 7.4)
# rats = test: Loss of righting reflexes; type: in vivo, Sprague-Dawley rats; conditions: for Slope of Duration vs. Log Dose ± SD / ED50 ± SD for loss of righting reflexes (LORR) / R/S ED50 ratio: rats; for Slope of Duration vs. Log Dose ± SD: duration of LORR vs logarithm of dose; for Slope of Duration vs. Log Dose ± SD / ED50 ± SD for loss of righting reflexes (LORR) / death of rat after dosing: intravenous bolus; for ED50 ± SD for loss of righting reflexes (LORR): method of Waud; for death of rat after dosing: one rat, 20 mg/kg dose; for R/S ED50 ratio: ED50 for LORR of (R)-form versus (S)-form of the diastereometric pair
# [3] = ref Pejo et al.[8]; cited from earlier work
compound,measurement,setting,value
COC(=O)[C@@H](C)OC(=O)c1cncn1[C@H](C)c1ccccc1 [(R)-methyl- methoxycarbonyl metomidate],Blood Half-Life (95% CI),[1],<0.03 min
same,Octanol/Water Partition Coefficient ± SD,[2],380 ± 15
same,Slope of Duration vs. Log Dose ± SD,rats,4.6 ± 0.7 min/(log mg/kg)
same,ED50 ± SD for loss of righting reflexes (LORR),rats,9.6 ± 1.9 mg/kg
COC(=O)C(C)(C)COC(=O)c1cncn1[C@H](C)c1ccccc1 [α-dimethyl- methoxycarbonyl etomidate],Blood Half-Life (95% CI),[1],2.6 (1.9–4.2) min
same,Octanol/Water Partition Coefficient ± SD,[2],2240 ± 150
same,Slope of Duration vs. Log Dose ± SD,rats,9.8 ± 1.5 min/(log mg/kg)
same,ED50 ± SD for loss of righting reflexes (LORR),rats,2.4 ± 1 mg/kg
COC(=O)C[C@H](C)OC(=O)c1cncn1[C@H](C)c1ccccc1 [β-(S)-methyl- methoxycarbonyl etomidate],Blood Half-Life (95% CI),[1],0.72 (0.56–0.98) min
same,Octanol/Water Partition Coefficient ± SD,[2],484 ± 12
same,Slope of Duration vs. Log Dose ± SD,rats,2.0 ± 0.5 min/(log mg/kg)
same,ED50 ± SD for loss of righting reflexes (LORR),rats,2.9 ± 0.3 mg/kg
Cyclopropyl- methoxycarbonyl metomidate,Blood Half-Life (95% CI),[1],0.57 (0.49–0.68) min
same,Octanol/Water Partition Coefficient ± SD,[2],420 ± 11
same,Slope of Duration vs. Log Dose ± SD,rats,6.9 ± 0.5 min/(log mg/kg)
same,ED50 ± SD for loss of righting reflexes (LORR),rats,0.69 ± 0.04 mg/kg
COC(=O)CCOC(=O)c1cncn1[C@@H](c1ccccc1)C(C)C [(R)-isopropyl- methoxycarbonyl metomidate],Blood Half-Life (95% CI),[1],0.15 (0.15–0.16) min
same,Octanol/Water Partition Coefficient ± SD,[2],3830 ± 310
same,death of rat after dosing,rats,died
same,Slope of Duration vs. Log Dose ± SD,rats,6.6 ± 1.3 min/(log mg/kg)
same,ED50 ± SD for loss of righting reflexes (LORR),rats,3.6 ± 0.8 mg/kg
COC(=O)[C@@H](C)COC(=O)c1cncn1[C@H](C)c1ccccc1 [α-(S)-methyl- methoxycarbonyl etomidate],Blood Half-Life (95% CI),[1],0.76 (0.58–1.0) min
same,Octanol/Water Partition Coefficient ± SD,[2],530 ± 170
same,Slope of Duration vs. Log Dose ± SD,rats,2.4 ± 0.3 min/(log mg/kg)
same,ED50 ± SD for loss of righting reflexes (LORR),rats,3.1 ± 0.4 mg/kg
β-methyl-methoxycarbonyl etomidate,R/S ED50 ratio,rats,1.2
"COC(=O)c1cncn1C(C)c1ccccc1 (stereo not drawn) [Metomidate, reference compound]",half-life at 200 µM,"[1]; Sprague-Dawley, rat, pooled heparinised whole blood",2.38 h
same,Slope of Duration vs. Log Dose ± SD,rats,33.0 ± 3.9 min/(log mg/kg)
COC(=O)COC(=O)c1cncn1[C@H](C)c1ccccc1 [Methoxycarbonyl metomidate],Blood Half-Life (95% CI),[1],<0.03 min
same,Octanol/Water Partition Coefficient ± SD,[2],159 ± 15
same,Slope of Duration vs. Log Dose ± SD,rats,1.6 ± 0.4 min/(log mg/kg)
same,ED50 ± SD for loss of righting reflexes (LORR),rats,11.1 ± 0.8 mg/kg
COC(=O)C(OC(=O)c1cncn1C(C)c1ccccc1)C(C)C (stereo not drawn) [isopropyl-methoxycarbonyl metomidate],R/S ED50 ratio,rats,3.0
α-methyl-methoxycarbonyl etomidate,R/S ED50 ratio,rats,1.7
methyl-methoxycarbonyl metomidate,R/S ED50 ratio,rats,2.7
COC(=O)CCOC(=O)c1cncn1[C@H](C)c1ccccc1 [Methoxycarbonyl etomidate],Blood Half-Life (95% CI),[1],0.41 (0.31–0.60) min
same,Octanol/Water Partition Coefficient ± SD,[2],190 ± 25
same,Slope of Duration vs. Log Dose ± SD,rats,1.0 ± 0.3 min/(log mg/kg)
same,ED50 ± SD for loss of righting reflexes (LORR),rats,5.3 ± 1.5 mg/kg
COC(=O)CCOC(=O)c1cncn1[C@H](c1ccccc1)C(C)C [(S)-isopropyl- methoxycarbonyl metomidate],Blood Half-Life (95% CI),[1],15.5 (11.6–23.1) min
same,Octanol/Water Partition Coefficient ± SD,[2],2860 ± 67
same,Slope of Duration vs. Log Dose ± SD,rats,12.1 ± 1.1 min/(log mg/kg)
same,ED50 ± SD for loss of righting reflexes (LORR),rats,1.2 ± 0.19 mg/kg
COC(=O)C[C@@H](C)OC(=O)c1cncn1[C@H](C)c1ccccc1 [β-(R)-methyl- methoxycarbonyl etomidate],Blood Half-Life (95% CI),[1],0.91 (0.76–1.1) min
same,Octanol/Water Partition Coefficient ± SD,[2],500 ± 24
same,Slope of Duration vs. Log Dose ± SD,rats,2.9 ± 0.8 min/(log mg/kg)
same,ED50 ± SD for loss of righting reflexes (LORR),rats,3.5 ± 0.6 mg/kg
COC(=O)C(C)(C)OC(=O)c1cncn1[C@H](C)c1ccccc1 [Dimethyl- methoxycarbonyl metomidate],Blood Half-Life (95% CI),[1],8.7 (7.4–10.7) min
same,Octanol/Water Partition Coefficient ± SD,[2],660 ± 110
same,death of rat after dosing,rats,died
same,Slope of Duration vs. Log Dose ± SD,rats,9.6 ± 0.8 min/(log mg/kg)
same,ED50 ± SD for loss of righting reflexes (LORR),rats,0.72 ± 0.16 mg/kg
COC(=O)[C@H](C)COC(=O)c1cncn1[C@H](C)c1ccccc1 [α-(R)-methyl- methoxycarbonyl etomidate],Blood Half-Life (95% CI),[1],0.19 (0.17–0.22) min
same,Octanol/Water Partition Coefficient ± SD,[2],670 ± 120
same,Slope of Duration vs. Log Dose ± SD,rats,2.6 ± 0.3 min/(log mg/kg)
same,ED50 ± SD for loss of righting reflexes (LORR),rats,5.2 ± 0.5 mg/kg
"CCOC(=O)c1cncn1[C@H](C)c1ccccc1 [Etomidate, (R)-ethyl-1-(1-phenylethyl)-1H-imidazole-5-carboxylate, reference compound]",Octanol/Water Partition Coefficient ± SD,[3],800 ± 180
same,Slope of Duration vs. Log Dose ± SD,rats,24.6 ± 4.7 min/(log mg/kg)
COC(=O)CC(C)(C)OC(=O)c1cncn1C(C)c1ccccc1 (stereo not drawn) [β-dimethyl- methoxycarbonyl etomidate],Blood Half-Life (95% CI),[1],23.4 (19.6–28.9) min
same,Octanol/Water Partition Coefficient ± SD,[2],1580 ± 40
same,Slope of Duration vs. Log Dose ± SD,rats,11.9 ± 0.6 min/(log mg/kg)
same,ED50 ± SD for loss of righting reflexes (LORR),rats,1.9 ± 0.3 mg/kg
COC(=O)[C@H](C)OC(=O)c1cncn1[C@H](C)c1ccccc1 [(S)-methyl- methoxycarbonyl metomidate],Blood Half-Life (95% CI),[1],0.14 (0.08–0.62) min
same,Octanol/Water Partition Coefficient ± SD,[2],330 ± 16
same,Slope of Duration vs. Log Dose ± SD,rats,1.9 ± 0.2 min/(log mg/kg)
same,ED50 ± SD for loss of righting reflexes (LORR),rats,3.5 ± 0.4 mg/kg
